This data set in a line: Relative fluorescence quantum yield measurement. In kind it is physicochemical. The note with it: degassed toluene, tetraphenylporphyrin as standard. The protocol:
The Φem measurements were performed using degassed toluene solutions of 1,1-Al, 1-Ga, and tetraphenylporphyrin (as a standard). Samples were excited at λex=355 nm and the emission was observed from λem=500-800 nm. The standard tetraphenylporphyrin was excited at λex=514 nm and the emission was observed from λem=500-800 nm. Φem for tetraphenylporphyrin is 0.11.3 All relative fluorescence quantum yields were calculated based on the corresponding fluorescence spectra of the samples and the standard according to the equation: […]
where Φem(s) and Φem(x) are the relative fluorescence quantum yield of the standard and sample, respectively; As and Ax are the absorbance at the excitation wavelength for the standard and sample, respectively; Fs and Fx are the area under the corrected emission curve for the standard and sample, respectively; and ηs and ηx are the refractive index of the solvent used for the standard and sample, respectively.

Structures are written as SMILES.

Take `O=S(=O)(Cl)C1=Cc2nc1c(-c1c(F)c(F)c(F)c(F)c1F)c1ccc([nH]1)c(-c1c(F)c(F)c(F)c(F)c1F)c1ccc([nH]1)c(-c1c(F)c(F)c(F)c(F)c1F)c1cc(S(=O)(=O)Cl)c2[nH]1` [compound 1, 2,17-bischlorosulfonato-5,10,15-tris(pentafluorophenyl)corrole]: the “φem, relative emission quantum yield” value turned out to be 0.094.

For the origin of these results see US9580451B2, “Sulfonic esters of metal oxides and methods of their use” (California Institute of Technology, priority 2013, dated 2017).
